# US11691974B2, “3,9-diazaspiro[5,5]undecane compound as FLT3 and AXL inhibitors” (MEDSHINE DISCOVERY INC., priority 2018, dated 2023)
# Key:
# FLT3(ITD, F691L) = target: T1, FLT3(ITD, F691L) (Homo sapiens, UniProt P36888, F691L, form not given); assay: KINOMEscan Kd determination, FLT3 mutant; assay type: binding; details: ratio of Kd versus compound B
# T1 sequence (P36888 1-993 F691L): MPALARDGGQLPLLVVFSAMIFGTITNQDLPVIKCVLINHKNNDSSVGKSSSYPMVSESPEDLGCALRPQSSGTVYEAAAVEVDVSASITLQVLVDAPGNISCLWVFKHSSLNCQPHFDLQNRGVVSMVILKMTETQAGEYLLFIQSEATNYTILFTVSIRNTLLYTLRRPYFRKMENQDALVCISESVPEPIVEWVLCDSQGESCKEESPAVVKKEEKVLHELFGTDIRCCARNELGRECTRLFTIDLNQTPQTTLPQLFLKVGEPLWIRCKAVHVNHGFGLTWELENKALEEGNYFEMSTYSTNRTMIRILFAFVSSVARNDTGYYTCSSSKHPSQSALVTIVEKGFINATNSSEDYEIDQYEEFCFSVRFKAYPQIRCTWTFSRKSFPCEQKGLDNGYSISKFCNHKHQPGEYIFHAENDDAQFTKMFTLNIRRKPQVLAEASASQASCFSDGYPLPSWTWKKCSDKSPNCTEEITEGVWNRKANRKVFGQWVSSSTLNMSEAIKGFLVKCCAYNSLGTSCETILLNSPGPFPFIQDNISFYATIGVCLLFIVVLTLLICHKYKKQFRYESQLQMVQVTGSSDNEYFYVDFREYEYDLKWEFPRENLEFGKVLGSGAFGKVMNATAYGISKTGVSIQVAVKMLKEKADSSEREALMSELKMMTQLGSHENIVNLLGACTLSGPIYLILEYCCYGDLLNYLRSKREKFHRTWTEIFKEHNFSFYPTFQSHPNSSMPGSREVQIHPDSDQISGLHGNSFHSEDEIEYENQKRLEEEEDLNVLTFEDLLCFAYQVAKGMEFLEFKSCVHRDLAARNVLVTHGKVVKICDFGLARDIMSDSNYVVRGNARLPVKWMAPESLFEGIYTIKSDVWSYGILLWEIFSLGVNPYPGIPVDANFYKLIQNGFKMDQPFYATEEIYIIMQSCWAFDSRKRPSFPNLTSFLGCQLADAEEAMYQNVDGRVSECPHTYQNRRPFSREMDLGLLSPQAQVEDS
# Procedure: (§1) The assay was carried out using KINOMEscan™ technology. The assay compounds were stored in 100% DMSO. The assay was carried out by means of 3-fold dilution and 11-point fitting. All compounds used for Kd determination were dispersed by ultrasound, then directly diluted and tested. All reactions were carried out in a 384-well polypropylene plate. Each portion has a final volume of 0.02 ml. The plate was incubated with shaking at room temperature for 1 hour, and then processed. The kinase concentration in the eluent was finally determined by qPCR method. Kd was obtained by fitting.
# FLT3(K663Q) = target: T2, FLT3(K663Q) (Homo sapiens, UniProt P36888, K663Q); assay: KINOMEscan Kd determination, FLT3 mutant; assay type: binding; details: ratio of Kd versus compound B
# T2 sequence (P36888 27-993 K663Q): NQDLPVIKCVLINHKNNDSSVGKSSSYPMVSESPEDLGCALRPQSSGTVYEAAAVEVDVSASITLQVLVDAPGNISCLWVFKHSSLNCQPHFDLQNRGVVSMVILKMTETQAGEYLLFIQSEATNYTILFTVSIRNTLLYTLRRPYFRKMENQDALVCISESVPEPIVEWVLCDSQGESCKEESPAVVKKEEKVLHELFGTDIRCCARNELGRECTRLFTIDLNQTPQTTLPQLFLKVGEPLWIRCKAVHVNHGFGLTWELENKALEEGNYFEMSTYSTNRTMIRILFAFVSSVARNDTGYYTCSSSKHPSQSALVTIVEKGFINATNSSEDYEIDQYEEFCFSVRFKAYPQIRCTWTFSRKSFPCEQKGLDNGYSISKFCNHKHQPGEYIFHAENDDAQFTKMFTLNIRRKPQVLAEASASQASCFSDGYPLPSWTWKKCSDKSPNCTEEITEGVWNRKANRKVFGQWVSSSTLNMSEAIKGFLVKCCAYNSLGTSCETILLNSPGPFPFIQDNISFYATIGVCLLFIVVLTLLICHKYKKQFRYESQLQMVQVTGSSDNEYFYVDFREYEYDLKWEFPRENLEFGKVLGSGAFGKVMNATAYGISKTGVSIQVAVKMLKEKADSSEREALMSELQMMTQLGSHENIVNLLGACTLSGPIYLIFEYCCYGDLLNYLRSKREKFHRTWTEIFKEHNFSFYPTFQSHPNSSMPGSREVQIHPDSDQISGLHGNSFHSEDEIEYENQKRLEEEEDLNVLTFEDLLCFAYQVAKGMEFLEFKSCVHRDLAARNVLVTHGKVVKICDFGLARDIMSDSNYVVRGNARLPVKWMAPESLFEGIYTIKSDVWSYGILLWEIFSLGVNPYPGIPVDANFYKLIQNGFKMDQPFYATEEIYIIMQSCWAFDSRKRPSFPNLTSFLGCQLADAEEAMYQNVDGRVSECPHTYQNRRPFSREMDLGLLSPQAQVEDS
# Procedure: as §1
# [1] = In vivo pharmacokinetic study in rats; details: male, SD, rat, plasma
# Procedure: SD male rats aged 7 to 10 weeks were selected. The doses for intravenous and oral administration were 1 mg/kg and 2.5 mg/kg, respectively. The rats were fasted for at least 12 hours before the administration, and resumed feeding 4 hours after the administration. The rats had free access to water throughout the assay period.
# On the day of the assay, the animals in the intravenous group were administrated the corresponding compound through a single injection in the tail vein at an administration volume of 5 mL/kg; the oral group were administrated the corresponding compound through a single intragastric gavage at an administration volume of 10 mL/kg. The animals were weighed before administration, and the administration volume was calculated based on the body weight. The time for collecting samples was: 0.083 (the injection group), 0.25, 0.5, 1, 2, 4, 6, 8, 24 h. About 200 μL of whole blood was collected from the jugular vein at each time point to prepare plasma for concentration determination by high-performance liquid chromatography-tandem mass spectrometry (LC-MS/MS). All animals were euthanized by CO2 anesthesia after collecting the PK samples at the last time point. The plasma concentrations were processed by non-compartmental model of WinNonlin™ Version 6.3 (Pharsight, Mountain View, Calif.) pharmacokinetic software, and the pharmacokinetic parameters were calculated by the linear logarithm trapezoidal method.
compound,measurement,setting,value
CCc1nc(C(N)=O)c(Nc2ccc(N3CCC4(CCN(C)CC4)CC3)c(C)c2)nc1NC1CCOCC1,"activity for FLT3 (ITD, F691L) higher than that of compound B","FLT3(ITD, F691L)",3.6 times
same,activity for FLT3 (K663Q) higher than that of compound B,FLT3(K663Q),5.9 times
same,AUC(0-t),"[1]; iv, injection 1 mg/kg",0.457 µM·h
same,clearance,"[1]; iv, injection 1 mg/kg",61.2 mL/min/kg
same,half-life,"[1]; iv, injection 1 mg/kg",2.99 h
same,Vd,"[1]; iv, injection 1 mg/kg, read-out: Vdss",13.3 L/kg
same,AUC(0-t),[1]; oral administration 2.5 mg/kg,0.51 µM·h
same,bioavailability,[1]; oral administration 2.5 mg/kg,44.7%
